Data published in patent publication US10620222B2, “Electrified compositions for determining the risk of developing adolescent idiopathic scoliosis through the use of GI protein receptor” (CHU Sainte-Justine, priority 2008, dated 2020).
“And” between values parts separate entries of the source, which are not always exact repeats. Equal values may be shown once.

Key:
[1] = test system: melatonin signaling in osteoblasts; test: cAMP assay in forskolin pre-treated osteoblasts; format: cell-based, human; settings: osteoblasts from IS patients; increasing concentration of melatonin; FIG. 2
Description: Osteoblasts from patients with IS and control subjects were seeded in quadruplicate on 24-well plates (1×10^5 cells per well) and tested as previously described (Moreau A, Wang D S, Forget S et al. Melatonin Signaling Dysfunction in Adolescent Idiopathic Scoliosis. Spine 2004; 29:1772-81). All assays were performed in duplicate.
Cells were then challenged with increasing concentration of melatonin and the functional status of melatonin signaling was estimated by the ability of melatonin to reduce cAMP levels. Data were normalized with cAMP production induced by forskolin in the absence of melatonin. […] Furthermore, the extent of this production was different between the three IS patients.

[2] = test system: receptors coupled to Gi proteins expressed on osteoblasts; test: Cellular Dielectric Spectroscopy (CDS, CELLKEY) response to Gi-coupled receptor ligands in osteoblasts from control and AIS subjects; format: cell-based, human; design: % of control / % of control signal, Group 1, min diff. / % of control signal, Group 2, min diff. / % of control signal, Group 3, min diff.: concentration or dose not given beside the values; dZiec value / Absolute dZiec, control value of max diff. (maximal control value): unit not given here; settings: for dZiec value: n1, n2 of Exper. 1-3
[3] = test system: Gi protein-mediated pathway in MG63 osteoblast cell line; format: cell-based; settings: 100 ng/mL PTX 16 h, stimulation with 10 μM ligand, 37° C., 5 min
Description: The ability of CDS to detect the relative part of the Gi protein-mediated pathway in melatonin signaling was determined by blocking this pathway with pertussis toxin (PTX). This toxin ADP-ribosylates the a subunit of the heterotrimeric Gi protein and thereby prevents its activity. The MG63 osteoblast cell line was serum-starved for 16 h in the absence or presence of 100 ng/mL of PTX to inhibit the αi subunit of Gi protein. […] Cellular responses were measured with CELLKEY™ label-free cellular analysis system as described in the Material and Methods section.

[4] = osteoblasts of control subjects, 300 μM ligand, from FIGS. 11A-11F

In the case of `COc1ccc2[nH]cc(CCNC(C)=O)c2c1` [Melatonin, melatonin], the “cAMP production after forskolin stimulation, IS vs healthy control osteoblasts” value [1] is reported as “high cAMP production”, the “CDS response, dependence on concentration” value ([2]; osteoblasts from both control and IS patients, FIGS. 4A-4C) is reported as “concentration-dependent manner” and the “% of control” value ([2]; osteoblasts of AIS#1020 (Group 3) relative to CTR#60) is reported as 52.6% and 59.8% and 63.3% and 58.1% and 58% and 59.2%. The dZiec value ([2]; osteoblasts of AIS#1020 (Group 3), 300 μM ligand) was 29.38 and 31.88 and 40.33 and 39.33 and 34.34 and 36.12, the “% of control” value ([2]; osteoblasts of AIS#1198 (Group 3 in Table II) relative to CTR#69) was 39.3% and 42.7% and 35.6% and 27.7% and 33.3% and 34.7% and the dZiec value ([2]; osteoblasts of AIS#1198 (Group 3 in Table II), 300 μM ligand) was 23.94 and 31.44 and 31.91 and 25.91 and 27.41 and 29.19. The “% of control” value ([2]; osteoblasts of AIS#1468 (Group 3) relative to CTR#61) was 65.3% and 70% and 67.8% and 64.6% and 66.4% and 67.2%, the dZiec value ([2]; osteoblasts of AIS#1468 (Group 3), 300 μM ligand) was 44.92 and 46.42 and 54.79 and 49.34 and 51.12 and the “% of control” value ([2]; osteoblasts of AIS#1474 (Group 1) relative to CTR#60) was 29.6% and 24.4% and 23.8% and 22.4% and 29.3% and 26.4%. For the same compound, the dZiec value ([2]; osteoblasts of AIS#1474 (Group 1), 300 μM ligand) was 16.53 and 13.03 and 15.18 and 17.34 and 16.12, the “% of control” value ([2]; osteoblasts of AIS#1488 (Group 1) relative to CTR#69) was 12.9% and 15.3% and 12.2% and 11.7% and 15% and 14.4% and the dZiec value ([2]; osteoblasts of AIS#1488 (Group 1), 300 μM ligand) was 9.79 and 11.29 and 10.91 and 12.34 and 12.12. For the same compound, the “% of control” value ([2]; osteoblasts of AIS#1513 (Group 3) relative to CTR#61) was 56.5% and 59.4% and 62.9% and 61.1% and 59.7% and 60.6%, the dZiec value ([2]; osteoblasts of AIS#1513 (Group 3), 300 μM ligand) was 38.90 and 39.40 and 50.81 and 51.81 and 44.34 and 46.12 and the “% of control” value ([2]; osteoblasts of AIS#1549 (Group 1) relative to CTR#61) was 25.1% and 25.3% and 22.8% and 24.1% and 23.3%. The dZiec value ([2]; osteoblasts of AIS#1549 (Group 1), 300 μM ligand) was 17.30 and 16.80 and 18.41 and 20.41 and 17.34 and 19.12, the “% of control” value ([2]; osteoblasts of AIS#1550 (Group 2) relative to CTR#60) was 50.7% and 57.7% and 46.2% and 47.9% and 49.5% and 51% and the dZiec value ([2]; osteoblasts of AIS#1550 (Group 2), 300 μM ligand) was 28.28 and 30.78 and 29.43 and 32.43 and 29.34 and 31.12. For the same compound, the dZiec value ([2]; osteoblasts of control CTR#60, 300 μM ligand) was 55.81/— and 53.31/— and 63.72/— and 67.72/— and 59.25/— and 61.03/—, the dZiec value ([2]; osteoblasts of control CTR#61, 300 μM ligand) was 68.79/— and 66.29/— and 80.84/— and 84.84/— and 74.30/— and 76.08/— and the dZiec value ([2]; osteoblasts of control CTR#69, 300 μM ligand) was 76.12/— and 73.62/— and 89.58/— and 93.58/— and 82.34/— and 84.12/—. The “Absolute dZiec, control value of max diff. (maximal control value)” value [2, 4] was 83, the “Absolute dZiec, control value of min diff. (minimal control value)” value [2, 4] was 60 and the “Absolute dZiec, Group 1, max diff. (group value)” value ([2]; osteoblasts, AIS Group 1 value of max diff., 300 μM ligand, from FIGS. 11A-11F) was 11. The “Absolute dZiec, Group 1, min diff. (group value)” value ([2]; osteoblasts, AIS Group 1 value of min diff., 300 μM ligand, from FIGS. 11A-11F) was 18, the “% of control signal, Group 1, max diff.” value ([2]; osteoblasts, AIS Group 1 vs maximal control value) was 13% and the “% of control signal, Group 1, min diff.” value ([2]; osteoblasts, AIS Group 1 vs minimal control value) was 30%. The “Absolute dZiec, Group 2, max diff. (group value)” value ([2]; osteoblasts, AIS Group 2 value of max diff., 300 μM ligand, from FIGS. 11A-11F) was 28, the “Absolute dZiec, Group 2, min diff. (group value)” value ([2]; osteoblasts, AIS Group 2 value of min diff., 300 μM ligand, from FIGS. 11A-11F) was 37 and the “% of control signal, Group 2, max diff.” value ([2]; osteoblasts, AIS Group 2 vs maximal control value) was 34%. The “% of control signal, Group 2, min diff.” value ([2]; osteoblasts, AIS Group 2 vs minimal control value) was 62%, the “Absolute dZiec, Group 3, max diff. (group value)” value ([2]; osteoblasts, AIS Group 3 value of max diff., 300 μM ligand, from FIGS. 11A-11F) was 45 and the “Absolute dZiec, Group 3, min diff. (group value)” value ([2]; osteoblasts, AIS Group 3 value of min diff., 300 μM ligand, from FIGS. 11A-11F) was 50. For the same compound, the “% of control signal, Group 3, max diff.” value ([2]; osteoblasts, AIS Group 3 vs maximal control value) was 54%, the “% of control signal, Group 3, min diff.” value ([2]; osteoblasts, AIS Group 3 vs minimal control value) was 83% and the “magnitude of CDS response in IS osteoblasts vs control” value ([2]; osteoblasts, FIGS. 4A-4C) was “significantly lower”. The “inhibition extent of the CDS response by PTX treatment” value [3] was “about 75%”.
